Laboratory results published in US20250026745A1 (Bluejay Therapeutics, Inc., priority 2023, published 2025).
Like-named read-outs stand apart in the source and are kept apart here.

Key:
[1] = cited from earlier work
[2] = Recovery of glucuronide Compound I-51 spiked into mouse liver tissue homogenate (30% ACN in water with 2% FA); type: in vitro ADME; conditions: parent Compound I-16 measured in I-51-spiked sample
Text: Compound I-51, a glucuronide of compound I-16, was used to develop methodology to ensure the glucuronide metabolite of the phenol could be stabilized in liver tissue to glucuronidase and other enzymatic cleavage in order to determine accurate levels of parent:glucuronide in the liver tissue. A known amount of Compound I-51 was spiked into a gram of mouse liver tissue where 2% formic acid (FA) was used with 30% acetonitrile (ACN) in water to stop all enzymatic glucuronidase activity.
Comparison of Treatment on ‘30% ACN in Water with 2% FA’ Homogenate Buffer for Compound I-51:
1). Prepared the homogenate buffer ‘30% ACN in water with 2% FA’ (including […] Compound 1-51), then homogenized with the liver tissue together. Due to the ratio of 1:9 (1 g tissue with 9 mL buffer), the final concentration was 900 ng/mL.
2). An aliquot of 20 μL sample were taken for analysis. Compound I-51 was Added after Homogenate:
1). The liver tissue was homogenized with the buffer ‘30% ACN in water with 2% FA’, then 2 μL 18 µg/mL Compound I-51 was spiked in 38 μL liver homogenate, the final concentration was 900 ng/mL. 2). An aliquot of 20 μL sample were taken for analysis. […]
The amount of parent was measured under these conditions Compound I-16 after generating a standard curve for Compound I-16.

[3] = biological target: recombinant 17β-HSD13 protein (Homo sapiens (Human), UniProt Q7Z5P4); assay: 17β-HSD13 biochemical assay (NAD+/NADH Glo chemiluminescence); conditions: 17β-HSD13 50 nM, NAD+ 10 mM, β-estradiol 20 μM, 2 hours room temperature
Sequence of recombinant 17β-HSD13 protein (Q7Z5P4 20-300): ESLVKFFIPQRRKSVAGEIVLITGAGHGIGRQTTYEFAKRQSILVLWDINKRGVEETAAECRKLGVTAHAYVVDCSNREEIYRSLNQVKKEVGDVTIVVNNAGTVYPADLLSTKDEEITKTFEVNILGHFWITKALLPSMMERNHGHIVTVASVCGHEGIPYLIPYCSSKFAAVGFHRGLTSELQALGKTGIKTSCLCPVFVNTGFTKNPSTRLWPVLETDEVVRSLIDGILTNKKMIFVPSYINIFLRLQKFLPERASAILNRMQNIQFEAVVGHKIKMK
Outline: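 Compounds preincubated 1 h at room temperature with 50 nM enzyme and 10 mM NAD+ (final) in 200 mM Tris pH 7.5, 0.01% Triton X-100, 0.02% BSA. Reaction started with 20 μM β-estradiol and run 2 hours at room temperature; NADH formation detected by NAD+/NADH-Glo chemiluminescence. IC50 from four-parameter logistic fit.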

[4] = biological target: HEK293 cells expressing 17β-HSD13 (Homo sapiens (Human), UniProt Q7Z5P4); assay: 17β-HSD13 cell-based assay (β-estradiol conversion, LC-MS/MS)
Sequence of HEK293 cells expressing 17β-HSD13 (Q7Z5P4 20-300): as above
Protocol: HEK293 cells expressing 17β-HSD13 either stably or transiently were incubated with compounds for 60 min at 37° C. in a humidified incubator. After this first incubation step, β-estradiol was added to each well of the microtiter plate and incubated for 3 h at 37° C. in the humidified incubator. After treatment with β-Estradiol, 50 μL of supernatant was transferred to a 96-V plate containing 100 μL acetonitrile and centrifuged at 3900 rpm for 45 min. Finally, 50 μL of supernatant were taken for LC-MS/MS analysis. The chromatography part was run on a Xbridge 30 mm×2.1 mm column (Waters), at 40 degrees Celsius and a flow rate of 0.8 mL/min for 5 min, while the MS was done on a Q Exactive Orbitrap (Fisher Scientific) in Target SIM mode and negative polarity with a spray voltage of 3.5 kV. EC50 values were determined with GraphPad Prism®, where log-transformed concentration values and the inhibition data were fitted to a four-parameter logistic equation. Y=Bottom+(Top−Bottom)/(1+10^((Log EC50−X)*Hill Slope)). The original, % control, or % inhibition data are represented by Y along with their minimal (Bottom) and maximal (Top) values. The inhibitor concentration is represented by X, EC50 is the concentration at 50% maximal value, and Hill Slope is the slope factor.

[5] = HEK293 cells stably expressing 17β-HSD13 (footnote b), read-out: EC50, nM Stable

| Calculated Concentration (ng/mL) of parent ([2]; after homogenate) | Calculated Concentration (ng/mL) of parent ([2]; before homogenate) | IC50 [3] | EC50 [4, 5] | EC50 ([4]; HEK293 cells transiently expressing 17β-HSD13 (footnote a), read-out: EC50, nM Transient) | Structure (SMILES) | glucuronidation / in vivo clearance [1] |
| --- | --- | --- | --- | --- | --- | --- |
| – | – | – | – | – | CCn1c(=O)c(C)cn(Cc2ccc(-c3ccc(F)c(O)c3F)s2)c1=O [BI-3231] | prone to rapid glucuronidation on the phenol moiety leading to fast in vivo clearance |
| 5.237 ng/mL | 5.618 ng/mL | 12.9 ± 2.43 nM | 37.1 nM | 107 nM | O=C1N(CC(F)(F)F)C(=O)C2(CC2)N1Cc1nnc(-c2ccc(F)c(O)c2Cl)s1 [Compound I-16, 4-((5-(2-chloro-4-fluoro-3-hydroxyphenyl)-1,3,4-thiadiazol-2-yl)methyl)-6-(2,2,2-trifluoroethyl)-4,6-diazaspiro[2.4]heptane-5,7-dione] | – |
| – | – | 9.8 nM | 66.4 nM | – | O=C1N(CC(F)(F)F)C(=O)C2(CC2)N1Cc1nnc(-c2cc(C(F)(F)F)cc(O)c2Cl)s1 [Compound I-40, 4-((5-(2-chloro-3-hydroxy-5-(trifluoromethyl)phenyl)-1,3,4-thiadiazol-2-yl)methyl)-6-(2,2,2-trifluoroethyl)-4,6-diazaspiro[2.4]heptane-5,7-dione] | – |
| – | – | 4.08 nM | 15.7 nM | – | CC[C@@H](C)N1C(=O)N(Cc2nnc(-c3ccc(F)c(O)c3F)s2)C2(CC2)C1=O [Compound I-42, (R)-6-(sec-butyl)-4-((5-(2,4-difluoro-3-hydroxyphenyl)-1,3,4-thiadiazol-2-yl)methyl)-4,6-diazaspiro[2.4]heptane-5,7-dione] | – |
| – | – | 4.6 nM | 35.1 ± 6.03 nM | – | CC(C)(C)N1C(=O)N(Cc2nnc(-c3ccc(F)c(O)c3Cl)s2)C2(CC2)C1=O [Compound I-50, 6-(tert-butyl)-4-((5-(2-chloro-4-fluoro-3-hydroxyphenyl)-1,3,4-thiadiazol-2-yl)methyl)-4,6-diazaspiro[2.4]heptane-5,7-dione] | – |
| – | – | 1.09 ± 0.23 nM | 6.41 ± 1.23 nM | – | O=C1N([C@@H](c2ccccc2)C(F)(F)F)C(=O)C2(CC2)N1Cc1nnc(-c2ccc(F)c(O)c2Cl)s1 [Compound I-52, 4-[[5-(2-chloro-4-fluoro-3-hydroxy-phenyl)-1,3,4-thiadiazol-2-yl]methyl]-6-[(1S)-2,2,2-trifluoro-1-phenyl-ethyl]-4,6-diazaspiro[2.4]heptane-5,7-dione] | – |
| – | – | 1.53 nM | 10.7 nM | – | O=C1N(C(c2ccc(F)cc2F)C(F)(F)F)C(=O)C2(CC2)N1Cc1nnc(-c2ccc(F)c(O)c2Cl)s1 (stereo not drawn) [Compound I-54, 4-[[5-(2-chloro-4-fluoro-3-hydroxy-phenyl)-1,3,4-thiadiazol-2-yl]methyl]-6-[1-(2,4-difluorophenyl)-2,2,2-trifluoro-ethyl]-4,6-diazaspiro[2.4]heptane-5,7-dione] | – |
| – | – | 2.14 nM | 29.2 nM | – | O=C1N(Cc2ccccc2)C(=O)C2(CC2)N1Cc1nnc(-c2cc(C(F)(F)F)cc(O)c2F)s1 [Compound I-55, 6-benzyl-4-((5-(2-fluoro-3-hydroxy-5-(trifluoromethyl)phenyl)-1,3,4-thiadiazol-2-yl)methyl)-4,6-diazaspiro[2.4]heptane-5,7-dione] | – |
| – | – | 2.46 nM | 52.7 nM | – | O=C1N(Cc2ccccc2)C(=O)C2(CC2)N1Cc1nnc(-c2cc(C(F)(F)F)c(F)c(O)c2F)s1 [Compound I-57, 6-benzyl-4-((5-(2,4-difluoro-3-hydroxy-5-(trifluoromethyl)phenyl)-1,3,4-thiadiazol-2-yl)methyl)-4,6-diazaspiro[2.4]heptane-5,7-dione] | – |
| – | – | 1.76 ± 0.26 nM | 8.42 nM | – | C[C@H](c1ccccc1)N1C(=O)N(Cc2nnc(-c3ccc(F)c(O)c3F)s2)C2(CC2)C1=O [Compound I-82, (R)-4-((5-(2,4-difluoro-3-hydroxyphenyl)-1,3,4-thiadiazol-2-yl)methyl)-6-(1-phenylethyl)-4,6-diazaspiro[2.4]heptane-5,7-dione] | – |
| – | – | 2 ± 0.588 nM | 10.4 nM | – | C[C@@H](c1ccccc1)N1C(=O)N(Cc2nnc(-c3ccc(F)c(O)c3F)s2)C2(CC2)C1=O [Compound I-83, (S)-4-((5-(2,4-difluoro-3-hydroxyphenyl)-1,3,4-thiadiazol-2-yl)methyl)-6-(1-phenylethyl)-4,6-diazaspiro[2.4]heptane-5,7-dione] | – |
| – | – | 2.5 nM | 4.74 nM | – | O=C1N(Cc2nnc(-c3ccc(F)c(O)c3F)s2)C2(CC2)C(=O)N1C1(c2ccccc2)CC1 [Compound I-86, 4-((5-(2,4-difluoro-3-hydroxyphenyl)-1,3,4-thiadiazol-2-yl)methyl)-6-(1-phenylcyclopropyl)-4,6-diazaspiro[2.4]heptane-5,7-dione] | – |
| – | – | 1.01 ± 0.125 nM | 8.38 nM | – | O=C1N([C@H](c2ccc(F)cc2F)C(F)(F)F)C(=O)C2(CC2)N1Cc1nnc(-c2ccc(F)c(O)c2F)s1 [Compound I-90A, (R)-4-((5-(2,4-difluoro-3-hydroxyphenyl)-1,3,4-thiadiazol-2-yl)methyl)-6-(1-(2,4-difluorophenyl)-2,2,2-trifluoroethyl)-4,6-diazaspiro[2.4]heptane-5,7-dione] | – |
| – | – | 4 nM | 108 nM | – | Cc1c(-c2nnc(CN3C(=O)N([C@@H](c4ccccc4)C(F)(F)F)C(=O)C34CC4)s2)ccc(F)c1O [Compound I-91, (S)-4-((5-(4-fluoro-3-hydroxy-2-methylphenyl)-1,3,4-thiadiazol-2-yl)methyl)-6-(2,2,2-trifluoro-1-phenylethyl)-4,6-diazaspiro[2.4]heptane-5,7-dione] | – |
| – | – | 3.11 nM | 121 nM | – | O=C1N([C@@H](c2ccc(-c3ccc(F)cc3)cc2F)C(F)(F)F)C(=O)C2(CC2)N1Cc1nnc(-c2ccc(F)c(O)n2)s1 [Compound I-96, (S)-6-(1-(3,4′-difluoro-[1,1′-biphenyl]-4-yl)-2,2,2-trifluoroethyl)-4-((5-(5-fluoro-6-hydroxypyridin-2-yl)-1,3,4-thiadiazol-2-yl)methyl)-4,6-diazaspiro[2.4]heptane-5,7-dione] | – |
| – | – | 0.79 nM | 4.66 nM | – | O=C1N([C@@H](c2ccc(-c3ccc(F)cc3)cc2F)C(F)(F)F)C(=O)C2(CC2)N1Cc1nnc(-c2ccc(F)c(O)c2F)s1 [Compound I-97, (S)-4-((5-(2,4-difluoro-3-hydroxyphenyl)-1,3,4-thiadiazol-2-yl)methyl)-6-(1-(3,4′-difluoro-[1,1′-biphenyl]-4-yl)-2,2,2-trifluoroethyl)-4,6-diazaspiro[2.4]heptane-5,7-dione] | – |
| – | – | 1.17 ± 0.185 nM | 4.95 ± 0.0122 nM | – | O=C1N([C@@H](c2ccccc2)C(F)(F)F)C(=O)C2(CC2)N1Cc1nnc(-c2ccc(F)c(O)c2F)s1 [Compound I-99A, 4-[[5-(2,4-difluoro-3-hydroxy-phenyl)-1,3,4-thiadiazol-2-yl]methyl]-6-[(1S)-2,2,2-trifluoro-1-phenyl-ethyl]-4,6-diazaspiro[2.4]heptane-5,7-dione] | – |
